Data as given in patent US20230183239A1, “ECTONUCLEOTIDE PYROPHOSPHATASE-PHOSPHODIESTERASE 1 (ENPP-1) INHIBITORS AND USES THEREOF” (AbbVie Inc., priority 2017, published 2023).

Experiments:
Format in all cases: biochemical
ENPP1 [1] = target: T1, ENPP1 (Homo sapiens, UniProt P22413); assay: ENPP1 enzyme assay with AMP-pNP substrate (hydrolysis of ATP analog); settings: AMP-pNP substrate (ATP analog); Ki from IC50 by Cheng-Prusoff; read-out: ENPP1 Inhibition _AMP-pNP: Ki
T1 sequence (P22413 1-925): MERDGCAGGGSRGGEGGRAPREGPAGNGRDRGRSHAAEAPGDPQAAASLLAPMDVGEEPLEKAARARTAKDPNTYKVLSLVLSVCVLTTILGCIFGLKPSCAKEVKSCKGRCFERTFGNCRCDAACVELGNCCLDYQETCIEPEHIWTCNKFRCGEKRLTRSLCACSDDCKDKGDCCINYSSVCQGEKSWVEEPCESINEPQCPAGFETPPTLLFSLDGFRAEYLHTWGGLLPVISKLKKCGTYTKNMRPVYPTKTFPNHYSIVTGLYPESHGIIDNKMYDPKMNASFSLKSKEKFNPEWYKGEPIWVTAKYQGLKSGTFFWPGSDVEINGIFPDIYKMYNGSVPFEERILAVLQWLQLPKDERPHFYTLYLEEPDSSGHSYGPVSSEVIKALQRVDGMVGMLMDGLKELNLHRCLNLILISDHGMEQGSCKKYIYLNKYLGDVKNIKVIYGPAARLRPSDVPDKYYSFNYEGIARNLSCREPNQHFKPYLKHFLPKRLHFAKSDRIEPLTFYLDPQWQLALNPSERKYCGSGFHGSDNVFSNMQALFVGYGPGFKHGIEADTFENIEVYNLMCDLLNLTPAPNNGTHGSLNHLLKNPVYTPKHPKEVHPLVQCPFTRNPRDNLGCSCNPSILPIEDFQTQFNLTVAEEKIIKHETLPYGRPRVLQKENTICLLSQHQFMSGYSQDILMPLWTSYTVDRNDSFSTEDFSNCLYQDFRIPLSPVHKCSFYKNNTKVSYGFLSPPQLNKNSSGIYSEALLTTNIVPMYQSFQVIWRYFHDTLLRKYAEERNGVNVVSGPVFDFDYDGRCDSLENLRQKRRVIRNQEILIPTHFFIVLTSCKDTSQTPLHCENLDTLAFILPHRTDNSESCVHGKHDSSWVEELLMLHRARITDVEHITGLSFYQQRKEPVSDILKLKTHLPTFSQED
Description: The ENPP1 assay with AMP-pNP substrate is conducted in a buffer containing 50 mM Tris-HCl (pH 8.5)/ 250 mM NaCl/0.5 mM CaCl2/1 µM ZnCl2/0.1% DMSO. Inhibitors are added at final concentrations ranging between 10 µM and 30 pM depending on the compound. Duplicate wells are run at each inhibitor concentration. The final assay volume is 40 µL and human recombinant ENPP1 is present at 60 ng/well. The assay is initiated by the addition of substrate (300 µM AMP-pNP final concentration), and incubated for 20 minutes at 37° C. […] Each assay plate also includes wells with no enzyme added (MIN OD) and wells with no inhibitor added (MAX OD). The percent inhibition of ENPP1 for each sample is then calculated as: […]
IC50 values of compounds were calculated by entering the percent inhibition values into a sigmoidal variable slope nonlinear regression model in GraphPad Prism® software.

ENPP1 [2] = target: T1, ENPP1; assay: Indirect quantitation of 2',3'-cGAMP hydrolysis (AMP-Glo Assay kit); settings: cGAMP substrate; Ki from IC50 by Cheng-Prusoff; read-out: ENPP1 Inhibition -cGAMP: Ki
ENPP1 [3] = target: T1, ENPP1; assay: Substrate selectivity ratio, inhibition of cGAMP hydrolysis versus ATP hydrolysis; settings: ratio Ki AMP-pNP / Ki cGAMP
Description: The selectivity ratios for inhibition of cGAMP hydrolysis versus ATP hydrolysis were then calculated as follows: […]

Compound | Ki (ENPP1 [1]) [nM] | Ki (ENPP1 [2]) [nM] | Substrate Selectivity: Ki_AMP-pNP/Ki_cGAMP (ENPP1 [3])
COc1cc2ccc(=O)n(Cc3ccc(NS(N)(=O)=O)cc3)c2cc1OC [Example 126, N-(4-((6,7-dimethoxy-2-oxoquinolin-1(2H)-yl)methyl)phenyl) sulfamide] | > 1000 | 100 to 1000 | >134
COc1cc2nccc(Nc3ccc(NS(N)(=O)=O)cc3)c2cc1OC [Example 134, N-(4-((6,7-dimethoxyquinolin-4-yl)amino)phenyl)sulfamide] | > 1000 | < 100 | >69.1
COc1cc2ncc(C#N)c(-c3ccc(S(N)(=O)=O)cc3)c2cc1OC [Example 136, 4-(3-cyano-6,7-dimethoxyquinolin-4-yl)benzenesulfonamide] | > 1000 | < 100 | >461
COc1cc2ncnc(N3CCc4cc(NS(N)(=O)=O)ccc4C3)c2cc1OC [Example 137, N-(2-(6,7-dimethoxyquinazolin-4-yl)-1,2,3,4-tetrahydroisoquinolin-6-yl)sulfamide] | 100 to 1000 | < 100 | 22.4
COc1cc2ncnc(NC(C)c3ccc(NS(N)(=O)=O)cc3)c2cc1OC (stereo not drawn) [Example 140, N-(4-(1-((6,7-dimethoxyquinazolin-4-yl)amino)ethyl)phenyl) sulfamide] | 100 to 1000 | < 100 | 25.1
Cn1c(=O)[nH]c2ncnc(N3CCC(CCNS(N)(=O)=O)CC3)c21 [Example 141, N-(2-(1-(7-methyl-8-oxo-8,9-dihydro-7H-purin-6-yl)piperidin-4-yl)ethyl)sulfamide] | > 1000 | < 100 | >929
COc1cc2ncnc(-c3ccc(CNS(N)(=O)=O)cc3)c2cc1OC [Example 144, N-(4-(6,7-dimethoxyquinazolin-4-yl)benzyl)sulfamide] | 100 to 1000 | < 100 | 189.2
COc1cc2ncnc(-c3ccc(CCNS(N)(=O)=O)cc3)c2cc1OC [Example 145, N-(4-(6,7-dimethoxyquinazolin-4-yl)phenethyl)sulfamide] | 100 to 1000 | < 100 | 20.7
COc1cc2nccc(N3CCC(CCNS(=O)(=O)N4CCOCC4)CC3)c2cc1OC [Example 147, N-(2-(1-(6,7-dimethoxyquinolin-4-yl)piperidin-4-yl)ethyl)morpholine-4-sulfonamide] | > 1000 | 100 to 1000 | >117
COc1cc2nccc(-c3ccc4c(c3)CN(S(N)(=O)=O)CC4)c2cc1OC [Example 148, 7-(6,7-dimethoxyquinolin-4-yl)-3,4-dihydroisoquinoline-2(1H)-sulfonamide] | < 100 | < 100 | 10.1
COc1cc2ncc(C#N)c(-c3ccc4c(c3)CN(S(N)(=O)=O)CC4)c2cc1OC [Example 149, 7-(3-cyano-6,7-dimethoxyquinolin-4-yl)-3,4-dihydroisoquinoline-2(1H)-sulfonamide] | < 100 | < 100 | 12.2
NS(=O)(=O)N1CCc2ccc(-c3ncnc4ccccc34)cc2C1 [Example 150, 7-(quinazolin-4-yl)-3,4-dihydroisoquinoline-2(1H)-sulfonamide] | > 1000 | 100 to 1000 | >158
COc1cc2nccc(Nc3ccc(NS(=O)(=O)c4ccccc4)cc3)c2cc1OC [Example 153, N-(4-((6,7-dimethoxyquinolin-4-yl)amino)phenyl)benzenesulfonamide] | > 1000 | < 100 | 62.9
COc1cc2ncnc(NCCc3ccc(NS(N)(=O)=O)cc3)c2cc1OC [Example 156, N-(4-(2-((6,7-dimethoxyquinazolin-4-yl)amino)ethyl)phenyl) sulfamide] | 100 to 1000 | < 100 | 23.3

Further lines, results first:

Ki (ENPP1 [1]) [nM] | Ki (ENPP1 [2]) [nM] | Substrate Selectivity: Ki_AMP-pNP/Ki_cGAMP (ENPP1 [3]) | Compound
100 to 1000 | < 100 | 16.3 | NS(=O)(=O)N1CCC2(CCN(c3ncnc4ccccc34)CC2)C1 [Example 158, 8-(quinazolin-4-yl)-2,8-diazaspiro [4.5] decane-2-sulfonamide]
< 100 | < 100 | 54.8 | COc1cc2ncnc(N3CCC(CCC(=O)NO)CC3)c2cc1OC [Example 159, 3-(1-(6,7-dimethoxyquinazolin-4-yl)piperidin-4-yl)-N-hydroxypropanamide]
< 100 | < 100 | 13.9 | COc1cc2nccc(N3CCC4(CC3)CCN(S(N)(=O)=O)C4)c2cc1OC [Example 160, 8-(6,7-dimethoxyquinolin-4-yl)-2,8-diazaspiro[4.5]decane-2-sulfonamide]
< 100 | < 100 | 14.8 | COc1cc2ncnc(N3CCC(CCS(N)(=O)=O)CC3)c2cc1OC [Example 164, 2-(1-(6,7-dimethoxyquinazolin-4-yl)piperidin-4-yl)ethane-1-sulfonamide]
100 to 1000 | < 100 | 10.6 | N#Cc1cnc2ccccc2c1N1CCC2(CC1)CCN(S(N)(=O)=O)C2 [Example 167, 8-(3-cyanoquinolin-4-yl) -2,8-diazaspiro [4.5] decane-2-sulfonamide]
100 to 1000 | < 100 | 6.9 | COc1cc2ncnc(N3CCC(CCNS(N)(=O)=O)CC3)c2cc1Cl [Example 169, N-(2-(1-(6-chloro-7-methoxyquinazolin-4-yl)piperidin-4-yl)ethyl)sulfamide]
> 1000 | 100 to 1000 | >50.7 | COc1cc2ncnc(N3CCC(CCC(=O)O)CC3)c2cc1OC [Example 171, 3-(1-(6,7-dimethoxyquinazolin-4-yl)piperidin-4-yl)propanoic acid]
> 1000 | < 100 | >63.3 | COc1cc2ncc(C#N)c(Nc3ccc(NS(N)(=O)=O)cc3)c2cc1OC [Example 175, N-(4-((3-cyano-6,7-dimethoxyquinolin-4-yl)amino)phenyl)sulfamide]
> 1000 | 100 to 1000 | > 11.9 | COc1cc2nccc(NCc3ccc(NS(N)(=O)=O)cc3)c2cc1OC [Example 180, N-(4-(((6,7-dimethoxyquinolin-4-yl)amino)methyl)phenyl)sulfamide]
100 to 1000 | < 100 | 24.7 | COc1cc2ncnc(NCc3ccc(S(N)(=O)=O)cc3)c2cc1OC [Example 182, 4-(((6,7-dimethoxyquinazolin-4-yl)amino)methyl)benzene sulfonamide]
> 1000 | 100 to 1000 | > 18.0 | COc1cc2c(N3CCC(CCNS(N)(=O)=O)CC3)ncnc2cc1F [Example 184, N-(2-(1-(7-fluoro-6-methoxyquinazolin-4-yl)piperidin-4-yl)ethyl)sulfamide]
> 1000 | 100 to 1000 | > 8.00 | COc1cc2c(N3CCC(CCNS(N)(=O)=O)CC3)ncnc2cc1Cl [Example 185, N-(2-(1-(7-chloro-6-methoxyquinazolin-4-yl)piperidin-4-yl)ethyl)sulfamide]
> 1000 | 100 to 1000 | > 27.0 | COc1cc2c(N3CCC(CCNS(N)(=O)=O)CC3)ncnc2cn1 [Example 189, N-(2-(1-(6-methoxypyrido[3,4-d]pyrimidin-4-yl)piperidin-4-yl)ethyl)sulfamide]
